tested on: male ICR-mice; test: Potentiation of sodium pentobarbital sleeping time test; type: in vivo; settings: intraperitoneal, 1 mg/kg, 38 mg/kg sodium pentobarbital 30 min later
Procedure: Effects of N^6-substituted adenosine derivatives and/or N^6-substituted adenine derivatives on sodium pentobarbital-induced sleeping time in mice.
Name of Experiment: Potentiation of sodium pentobarbital sleeping time test.
Method of Experiment: Groups of 8-10 male ICR-mice with an average weight of 18-22 g were used. They were dosed orally or i.p. with the test compound or the vehicle. Thirty min after i.p. injection or 60 min after oral dosing 38 mg/kg sodium pentobarbital were injected intravenously. The latency and duration of sleep (loss of righting reflex) were recorded. The percentage of prolongation of sleeping time was calculated as: [(sleeping time of experimental group)−(sleeping time of control group)]/(sleeping time of control group)×100%.

First: OC[C@H]1O[C@@H](n2cnc3c(NCCc4ccc(O)c(O)c4)ncnc32)C(O)C1O (some centres unmarked) [Example 38]
Second: Nc1ccc(CNc2ncnc3c2ncn3[C@@H]2O[C@H](CO)[C@@H](O)[C@H]2O)cc1 [Example 6, N^6-(p-aminobenzyl)-adenosine]
The “Sleep prolonging rate (%)” value of the first is lower: 98% for the first, 165% for the second.

same assay, conditions: intraperitoneal, 5 mg/kg, 38 mg/kg sodium pentobarbital 30 min later

First: O=C(O)[C@H](Cc1ccccc1)Nc1ncnc2c1ncn2[C@@H]1O[C@H](CO)C(O)C1O (some centres unmarked) [Example 102, N-(6-adenosine)-(L)-phenylalanine]
Second: Cc1ccc(CNc2ncnc3c2ncn3[C@@H]2O[C@H](CO)[C@@H](O)[C@H]2O)o1 [Example 18, N^6-(5-methyl-2-furanylmethyl)-adenosine]
The “Sleep prolonging rate (%)” value of the first is higher: 44% for the first, 7% for the second.

In the case of `O=C(O)[C@@H]1CCCN1c1ncnc2c1ncn2[C@@H]1O[C@H](CO)C(O)C1O` (some centres unmarked) [Example 118, N-(6-adenosine)-(L)-proline], the “Sleep prolonging rate (%)” value is reported as 29%.

same assay, conditions: oral, 2.5 mg/kg, 38 mg/kg sodium pentobarbital 60 min later

In the case of `CC(Nc1ncnc2c1ncn2[C@@H]1O[C@H](CO)[C@@H](O)[C@H]1O)c1ccc(N)cc1` (mixture of isomers) [Example 48, N^6-[(±)-1-(4-aminophenyl)-ethyl]-adenosine], the “Sleep prolonging rate (%)” value is reported as 132%.

same assay, conditions: oral, 5 mg/kg, 38 mg/kg sodium pentobarbital 60 min later

First: COc1ccc([C@@H](C)Nc2ncnc3c2ncn3[C@@H]2O[C@H](CO)[C@@H](O)[C@H]2O)cc1 [Example 62, N^6-[(R)-1-(4-methoxyphenyl)-ethyl]-adenosine]
Second: CCN(Cc1ccccc1)c1ncnc2c1ncn2[C@@H]1O[C@H](CO)[C@@H](O)[C@H]1O [Example 134, N^6-ethyl-N^6-benzyl-adenosine]
The “Sleep prolonging rate (%)” value of the first is higher: 66% for the first, 7% for the second.

Going from `OC[C@@H](Nc1ncnc2c1ncn2[C@@H]1O[C@H](CO)[C@@H](O)[C@H]1O)c1ccccc1` [Example 64, N^6-[(L)-2-(hydroxy)-1-(phenyl)-ethyl]-adenosine] to `CCCOC[C@H]1O[C@@H](n2cnc3c(N[C@H](CC)c4ccccc4)ncnc32)C(O)C1O` (stereo partly drawn) [Example 86, N^6-[(R)-1-(phenyl)-propyl]-adenosine-5′-propyl ether], the “Sleep prolonging rate (%)” value rises from 67% to 318%.

Going from `CCCOC[C@H]1O[C@@H](n2cnc3c(NC(C)c4cc(OC)c(OC)c(OC)c4)ncnc32)C(O)C1O` (mixture of isomers) [Example 55, N^6-[(±)-1-(3,4,5-trimethoxyphenyl)-ethyl]-adenosine-5′-propyl ether] to `Cc1ccc([C@H](C)Nc2ncnc3c2ncn3[C@@H]2O[C@H](CO)[C@@H](O)[C@H]2O)cc1` [Example 60, N^6-[(S)-1-(4-methylphenyl)-ethyl]adenosine], the “Sleep prolonging rate (%)” value rises from 14% to 19%.

First: COc1cccc([C@H](C)Nc2ncnc3c2ncn3[C@@H]2O[C@H](CO)[C@@H](O)[C@H]2O)c1 [Example 66, N^6-[(S)-1-(3-methoxyphenyl)-ethyl]-adenosine]
Second: N^6-[(±)-1-(3,4,5-trimethoxyphenyl)-ethyl]-adenosine-5′-decanoic ether [Example 56]
The “Sleep prolonging rate (%)” value of the first is higher: 39% for the first, 2% for the second.

First: C[C@@H](Nc1ncnc2[nH]cnc12)c1ccccc1 [Example 142, N^6-[(R)-1-(phenyl)-ethyl]-adenine]
Second: CCCC(Nc1ncnc2c1ncn2[C@@H]1O[C@H](CO)[C@@H](O)[C@H]1O)c1ccccc1 (mixture of isomers) [Example 87, N^6-[(±)-1-(phenyl)-butyl]-adenosine]
The “Sleep prolonging rate (%)” value of the first is lower: 21% for the first, 57% for the second.

Compared with `OC[C@H]1O[C@@H](n2cnc3c(NCCc4ccc(O)c(O)c4)ncnc32)C(O)C1O` (some centres unmarked) [Example 38], `CCCOC[C@H]1O[C@@H](n2cnc3c(N[C@@H](CC)c4ccccc4)ncnc32)C(O)C1O` (stereo partly drawn) [Example 83, N^6-[(S)-1-(phenyl)-propyl]-adenosine-5′-propyl ether] is lower in “Sleep prolonging rate (%)” value: 69% for the first, 4% for the second.

Compared with `CCCCCCCC(=O)OC[C@H]1O[C@@H](n2cnc3c(NCc4ccc(OC(=O)CCCCCCC)c(OC)c4)ncnc32)[C@H](O)[C@@H]1O` [Example 26, N^6-(3-methoxy-4-octanoyloxybenzyl)-adenosine-5′-caprylate], `CC[C@H](C)[C@@H](CO)Nc1ncnc2c1ncn2[C@@H]1O[C@H](CO)C(O)C1O` (some centres unmarked) [Example 131, N^6-[(L)-2-(1-hydroxy-3-methyl)-pentyl]-adenosine] is lower in “Sleep prolonging rate (%)” value: 184% for the first, 36% for the second.

Going from `OC[C@H]1O[C@@H](n2cnc3c(N[C@@H](c4ccccc4)[C@H](O)c4ccccc4)ncnc32)C(O)C1O` (stereo partly drawn) [Example 100, N^6-{(1R,2S)-[2-hydroxy-(1,2-diphenyl)]-ethyl}-adenosine] to `CC[C@H](Nc1ncnc2c1ncn2[C@@H]1O[C@H](COC(C)=O)C(OC(C)=O)C1OC(C)=O)c1ccccc1` (stereo partly drawn) [Example 79, N^6-[(S)-1-(phenyl)-propyl]-adenosine-2′,3′,5′-triacetate], the “Sleep prolonging rate (%)” value rises from 38% to 41%.

First: OCC(CO)Nc1ncnc2c1ncn2[C@@H]1O[C@H](CO)C(O)C1O (some centres unmarked) [Example 129, N^6-[2-(1,3-dihydroxy)-propyl]-adenosine]
Second: CCC[C@@H](Nc1ncnc2c1ncn2[C@@H]1O[C@H](CO)C(O)C1O)c1ccccc1 (stereo partly drawn) [Example 89, N^6-[(R)-(phenyl)-butyl]-adenosine]
The “Sleep prolonging rate (%)” value of the first is higher: 184% for the first, 163% for the second.

Going from `Nc1ccc(CNc2ncnc3c2ncn3[C@@H]2O[C@H](CO)[C@@H](O)[C@H]2O)cc1` [Example 6, N^6-(p-aminobenzyl)-adenosine] to `CN(c1ncnc2c1ncn2[C@@H]1O[C@H](CO)[C@@H](O)[C@H]1O)C1CCCCC1` [Example 141, N^6-methyl-N^6-cyclohexyl-adenosine], the “Sleep prolonging rate (%)” value falls from 171% to 55%.

First: OC[C@H]1O[C@@H](n2cnc3c(NC(c4ccccc4)C4CCCCC4)ncnc32)C(O)C1O (mixture of isomers) [Example 93, N^6-[(±)-1-(cyclohexylphenyl)-methyl]-adenosine]
Second: OC[C@H](Nc1ncnc2c1ncn2[C@@H]1O[C@H](CO)C(O)C1O)[C@@H](O)c1ccccc1 (stereo partly drawn) [Example 41, N^6-[(1S,2S)-2-(1,3-dihydroxy-1-phenyl)-propyl]-adenosine]
The “Sleep prolonging rate (%)” value of the first is lower: 17% for the first, 33% for the second.

Compared with `CC(=O)OC[C@H]1O[C@@H](n2cnc3c(NCc4ccc5c(c4)OCO5)ncnc32)C[C@H]1OC(C)=O` [Example 154, N^6-(3,4-methylenedioxy-benzyl)-3′,5′-diacetyl-2′-deoxyadenosine], `C[C@H](Nc1ncnc2c1ncn2[C@@H]1O[C@H](CO)[C@@H](O)[C@H]1O)c1ccc(Cl)cc1` [Example 69, N^6-[(S)-1-(4-chlorophenyl)-ethyl]-adenosine] is higher in “Sleep prolonging rate (%)” value: 29% for the first, 33% for the second.

Going from `C[C@@H](Nc1ncnc2c1ncn2[C@@H]1O[C@H](CO)[C@@H](O)[C@H]1O)c1ccc(Cl)cc1` [Example 68, N^6-[(R)-1-(4-chlorophenyl)-ethyl]-adenosine] to `CC(O)CN(CC(C)O)c1ncnc2c1ncn2[C@@H]1O[C@H](CO)[C@@H](O)[C@H]1O` (some centres unmarked) [Example 140, N^6,N^6-bis(2-hydroxypropyl)-adenosine], the “Sleep prolonging rate (%)” value falls from 103% to 5%.

Compared with `CC[C@@H](Nc1ncnc2[nH]cnc12)c1ccccc1` [Example 144, N^6-[(R)-1-(phenyl)-propyl]-adenine], `CC[C@H](Nc1ncnc2c1ncn2[C@@H]1O[C@H](COC(C)=O)C(O)C1O)c1ccccc1` (stereo partly drawn) [Example 80, N^6-[(S)-1-(phenyl)-propyl]-adenosine-5′-acetate] is lower in “Sleep prolonging rate (%)” value: 42% for the first, 24% for the second.

In the case of `C[C@H]([C@@H](O)c1ccccc1)N(C)c1ncnc2c1ncn2[C@@H]1O[C@H](CO)C(O)C1O` (stereo partly drawn) [Example 135, N^6-methyl-N^6-[2-(1S,2R)-(1-hydroxy-1-phenyl)-propyl]-adenosine], the “Sleep prolonging rate (%)” value is reported as 39%.
